Experimental data reported in patent publication US20030216413A1, “Catecholamine pharmaceutical compositions and methods” (priority 2000, published 2003).
Counter-ions that a name gives are not always drawn.

What was measured:
[1] = daily injections of 1 mg/kg for seven days; cited from earlier work
[2] = Treatment of a patient with asthma (Examples 1-3)
Procedure: A patient presents with asthma complicated by degenerative heart disease and has variously used 0.25% or 1% isoproterenol aerosols, 0.10-0.20 mg epinephrine-bitartrate inhalers, and 90 μg albuterol every day at 4-6 hour intervals. […] The subject is administered an aerosol composition comprising 0.075% isoproterenol and 1.0% ascorbic acid.
A patient presents with asthma and has previously used 90 μg albuterol every day at 4-6 hour intervals. […] The subject is administered composition comprising 50 μg albuterol and […] morphine sulfate.
A patient presents with asthma and has previously used a 0.20 mg/dose epinephrine bitartrate inhaler every day at 6 hour intervals. The subject is administered a composition delivering a unit dose comprising 0.03 mg epinephrine bitatrate and 0.2 mg EDTA from a conventional inhaler.

[3] = 1:100,000 sterile aqueous solution; cited from earlier work
[4] = 1:1000 or 1:10,000 epinephrine in sterile aqueous solution; cited from earlier work
[5] = 1:1000 to 1:10,000 solutions; cited from earlier work

Which “side effects of the typical treatment” value [1] does the source give for `C[C@H](N)Cc1ccccc1` [D-amphetamine] here?
Its value is “Side effects often result”.

Which results are given for `CC(C)(C)NCC(O)c1ccc(O)c(CO)c1` (centres unmarked) [albuterol]?
adverse side effects ([2]; human, in vivo): unacceptable side effects; control of asthma / symptom relief ([2]; patient with asthma): not well controlled

For `CNC[C@H](O)c1ccc(O)c(O)c1` [epinephrine hydrochloride], which “duration of beneficial effect of conventional treatment” value [3] is on record?
Its value is “about 15 minutes”.

Which adverse side effects ([2]; human, in vivo) does the source give for `CNC[C@H](O)c1ccc(O)c(O)c1` [epinephrine-bitartrate] here?
The adverse side effects was “unacceptable side effects”.

With `CNC[C@H](O)c1ccc(O)c(O)c1` [epinephrine] as the compound, how does the “side effects of conventional formulations” value [4] read?
Its value is “fear, anxiety, restlessness, and sleeplessness, dizziness and palpitations”.

And the “duration of action of conventional treatment” value [5]?
Its value is “only a few minutes”.

With `CC(C)NCC(O)c1ccc(O)c(O)c1` (centres unmarked) [isoproterenol] as the compound, how does the adverse side effects ([2]; patient with asthma) read?
The adverse side effects was “unacceptable side effects”.
